Assay results published in ChEMBL document CHEMBL5120763 (J Nat Prod, 2022).
Calls of active or inactive are those of the source. The calls are words filed in the database; no cut-off is given here.

Key:
[1] = test system: A549; assay: Increase in cleaved PARP1 protein expression levels in tumor of BALB/c nude mouse xenografted with human A549 cells at 1 to 2 mg/kg, ip dosed every 2 days for total of 18 days by Western blot analysis; type: functional, organism-based; details: dose 1-2 mg/kg, time 18.0 day
[2] = Toxicity in BALB/c nude mouse xenografted with human A549 cells assessed as toxic effect on lung at 1 to 2 mg/kg, ip dosed every 2 days for total of 18 days by H and E staining; type: organism-based; details: in vivo, 432 h, dose 1-2 mg/kg, time 18 day
[3] = test system: PC-9; assay: Induction of apoptosis in human PC-9 cells assessed as increase in cleaved PARP1 levels at 0.25 to 1 uM incubated for 48 hrs by Western blot analysis; type: functional, cell-based; details: dose 0.25-1 µM
[4] = test system: NCI-H1299; assay: Induction of apoptosis in human NCI-H1299 cells assessed as late apoptosis cells level at 1 uM incubated for 24 hrs by FITC annexin V/PI double-staining based flow cytometry (reference value: 4.27%); type: functional
[5] = test system: NCI-H1299; assay: Induction of apoptosis in human NCI-H1299 cells at 0.25 to 1 uM incubated for 24 hrs by FITC annexin V/PI double-staining based flow cytometry; type: functional, cell-based; details: dose 0.25-1 µM, DDE = dose-dependent effect
[6] = test system: NCI-H1299; assay: Induction of apoptosis in human NCI-H1299 cells assessed as late apoptosis cells level at 0.5 uM incubated for 24 hrs by FITC annexin V/PI double-staining based flow cytometry (reference value: 4.27%); type: functional
[7] = test system: PC-9; assay: Induction of apoptosis in human PC-9 cells assessed as late apoptosis cells level at 0.5 uM incubated for 48 hrs by FITC annexin V/PI double-staining based flow cytometry (reference value: 2.07%); type: functional
[8] = test system: NCI-H1299; assay: Induction of apoptosis in human NCI-H1299 cells assessed as late apoptosis cells level at 0.25 uM incubated for 24 hrs by FITC annexin V/PI double-staining based flow cytometry (reference value: 4.27%); type: functional
[9] = Toxicity in BALB/c nude mouse xenografted with human A549 cells assessed as induction of body weight loss at 1 to 2 mg/kg, ip dosed every 2 days for total of 18 days; type: organism-based; details: in vivo, 432 h, dose 1-2 mg/kg, time 18 day
[10] = Toxicity in BALB/c nude mouse xenografted with human A549 cells assessed as toxic effect on liver at 1 to 2 mg/kg, ip dosed every 2 days for total of 18 days by H and E staining; type: organism-based; details: in vivo, 432 h, dose 1-2 mg/kg, time 18 day
[11] = test system: PC-9; assay: Induction of apoptosis in human PC-9 cells assessed as late apoptosis cells level at 0.25 uM incubated for 48 hrs by FITC annexin V/PI double-staining based flow cytometry (reference value: 2.07%); type: functional
[12] = test system: A549; assay: Antitumor activity against human A549 cells xenografted in BALB/c nude mouse assessed as reduction in tumor size at 2 mg/kg, ip dosed every 2 days for total of 18 days; type: functional, organism-based; details: time 18.0 day
[13] = test system: PC-9; assay: Induction of apoptosis in human PC-9 cells at 0.25 to 1 uM incubated for 48 hrs by FITC annexin V/PI double-staining based flow cytometry; type: functional, cell-based; details: dose 0.25-1 µM, DDE = dose-dependent effect
[14] = test system: NCI-H1299; assay: Induction of apoptosis in human NCI-H1299 cells assessed as increase in cleaved PARP1 levels at 0.25 to 1 uM incubated for 24 hrs by Western blot analysis; type: functional, cell-based; details: dose 0.25-1 µM
[15] = test system: PC-9; assay: Induction of apoptosis in human PC-9 cells assessed as reduction in Bcl2 levels at 0.25 to 1 uM incubated for 48 hrs by Western blot analysis; type: functional, cell-based; details: dose 0.25-1 µM
[16] = Toxicity in BALB/c nude mouse xenografted with human A549 cells assessed as toxic effect on kidney at 1 to 2 mg/kg, ip dosed every 2 days for total of 18 days by H and E staining; type: organism-based; details: in vivo, 432 h, dose 1-2 mg/kg, time 18 day
[17] = test system: NCI-H1299; assay: Induction of apoptosis in human NCI-H1299 cells assessed as reduction in Bcl2 levels at 0.25 to 1 uM incubated for 24 hrs by Western blot analysis; type: functional, cell-based; details: dose 0.25-1 µM
[18] = Toxicity in BALB/c nude mouse xenografted with human A549 cells assessed as toxic effect on heart at 1 to 2 mg/kg, ip dosed every 2 days for total of 18 days by H and E staining; type: organism-based; details: in vivo, dose 1-2 mg/kg
[19] = test system: PC-9; assay: Induction of apoptosis in human PC-9 cells assessed as late apoptosis cells level at 1 uM incubated for 48 hrs by FITC annexin V/PI double-staining based flow cytometry (reference value: 2.07%); type: functional

C[C@]12CC[C@H](O)C[C@@]1(O)CC[C@@H]1[C@@H]2CC[C@]2(C)[C@@H](c3ccc(=O)oc3)CC[C@]12O [TELOCINOBUFAGIN]
Activity [1]: Active | Activity [2]: Non-Toxic | Activity [3]: Active | Activity [4]: 38.41% | Activity [5]: Dde | Activity [6]: 25.06% | Activity [7]: 11.37% | Activity [8]: 16.98% | Activity [9]: Non-Toxic | Activity [10]: Non-Toxic | Activity [11]: 6.66% | Activity [12]: Active | Activity [13]: Dde | Activity [14]: Active | Activity [15]: Active | Activity [16]: Non-Toxic | Activity [17]: Active | Activity [18]: Non-Toxic | Activity [19]: 22.7%
